Assay results reported in article PMC12040169 (PLOS Biology, 2025).

Test: in vitro
Conditions: human, hela cells, % viability

Row | SMILES | viability at 28.5 h, 10 µM [%]
1 | CNC(=O)CN1CC[C@H]2NC(=O)c3ccccc3OCC/C=C/C[C@H]2C1 [CBK292049] | 110
2 | O=C1CNC(=O)C2(C/C=C/C[C@H]3COCC[C@@H]3N1)CCN(C(=O)CCc1cccnc1)CC2 [CBK292051] | 107
3 | CN1CC(=O)N2CCOC(C2)c2cccc(n2)NC(=O)C/C=C/CC2(CCNCC2)C1=O (centres unmarked) [CBK292053] | 102
4 | CC(=O)N1CCC[C@H]2NC(=O)CNC(=O)C3(C/C=C/C[C@H]21)CCN(Cc1ccccc1O)CC3 [CBK292054] | 99.3
5 | NC(=O)CN1CCCC2(CCCCc3ccccc3OCC(=O)NC2)C1 (centres unmarked) [CBK292058] | 106
6 | NC(=O)CCC(=O)N1CCC2(C/C=C/CCOc3ccccc3C(=O)NCCCNC2=O)CC1 [CBK292059] | 91.7
7 | CCN1CCC2(C/C=C/CCOc3ccccc3C(=O)NCCCNC2=O)CC1 [CBK292060] | 83.3
8 | CCN1CCC2(C/C=C/CNC(=O)c3ccccc3OCCN(C)C2=O)CC1 [CBK292061] | 102
9 | O=C1N[C@H]2CCCN(C(=O)c3cc(=O)[nH]c(=O)[nH]3)[C@H]2C/C=C/CCOc2ccccc21 [CBK292065] | 107
10 | O=C1CNC(=O)C2(C/C=C/C[C@H]3COCC[C@H]3N1)CCN(C(=O)Cc1cccnc1)CC2 [CBK292068] | 103
11 | Cn1cc(C(=O)N2CCC3(C/C=C/C[C@H]4COCC[C@H]4NC(=O)CNC3=O)CC2)cn1 [CBK292069] | 103
12 | Cc1ccn(CCC(=O)N2CCC3(C/C=C/C[C@H]4COCC[C@@H]4NC(=O)CNC3=O)CC2)n1 [CBK292070] | 86
13 | Cc1noc(C)c1CC(=O)N1CCC2(C/C=C/C[C@H]3COCC[C@@H]3NC(=O)CNC2=O)CC1 [CBK292071] | 92.3
14 | O=C1CNC(=O)C2(C/C=C/C[C@H]3COCC[C@H]3N1)CCN(CCOc1ccccc1)CC2 [CBK292077] | 107
15 | CN(CC(=O)N1CCC[C@@H]2[C@H]1C/C=C/Cc1ccccc1OCC(=O)N2C)Cc1ccccn1 [CBK292078] | 91.5
16 | CN1C(=O)COc2ccccc2C/C=C/C[C@@H]2[C@H]1CCCN2C(=O)CNS(C)(=O)=O [CBK292079] | 87.7
17 | O=C1NC/C=C/CC2(CCN(c3ncccn3)CC2)C(=O)NCCOc2ccccc21 [CBK292081] | 90.3
18 | O=C1COc2ccccc2C/C=C/C[C@H]2CN(C(=O)Cn3ncc4ccccc4c3=O)CC[C@H]2N1 [CBK292084] | 85.6
19 | Cc1ncoc1C(=O)N1CCC2(C/C=C/C[C@H]3COCC[C@H]3NC(=O)CNC2=O)CC1 [CBK292086] | 89.3
20 | Cc1nc(C(=O)N2CCC3(CCCCOc4ccccc4C(=O)NCCNC3=O)CC2)co1 [CBK292089] | 103
21 | CC(=O)N1CC[C@H]2NC(=O)CNC(=O)C3(CCCC[C@H]2C1)CCN(C(=O)/C=C/c1ccccc1)CC3 [CBK292092] | 105
22 | CN1C(=O)COc2ccccc2C/C=C/C[C@@H]2[C@H]1CCCN2C(=O)Cn1ccc(=O)[nH]c1=O [CBK292093] | 102
23 | O=C1NC/C=C/CC2(CCN(Cc3ccccc3)CC2)C(=O)NCCOc2ccccc21 [CBK292097] | 103
24 | CN1C(=O)COc2ccccc2CCCC[C@@H]2[C@H]1CCCN2CC(N)=O [CBK292098] | 105

Row | SMILES | viability at 28.5 h, 10 µM [%]
25 | Cc1ccc(=O)n(CC(=O)N2CCC[C@@H]3NC(=O)c4ccccc4OCCCCC[C@@H]32)n1 [CBK292100] | 94
26 | CC(=O)N1CC[C@H]2NC(=O)CNC(=O)C3(CCCC[C@H]2C1)CCN(C(=O)COc1ccccc1)CC3 [CBK292101] | 100
27 | CNC(=O)CN1CCC[C@@H]2NC(=O)c3ccccc3OCCCCC[C@@H]21 [CBK292104] | 104
28 | O=C1NCCNC(=O)C2(CCCCOc3ccccc31)CCN(C(=O)c1ccnnc1)CC2 [CBK292105] | 107
29 | CC(=O)N1CCC2(C/C=C/C[C@H]3CN(C(=O)C4CCC4)CC[C@H]3NC(=O)CNC2=O)CC1 [CBK292108] | 105
30 | CN1C(=O)COc2ccccc2CCCC[C@@H]2[C@H]1CCCN2C(=O)c1cc(=O)[nH]c(=O)[nH]1 [CBK292110] | 83.3
31 | CN1C(=O)COc2ccccc2CCCC[C@@H]2[C@H]1CCCN2CCO [CBK292112] | 103
32 | Cc1nc(CC(=O)N2CCC[C@@H]3NC(=O)c4ccccc4OCCCCC[C@@H]32)cs1 [CBK292113] | 102
33 | CC(=O)N1CCC2(CCCC[C@H]3CN(C(=O)CCC(C)C)CC[C@@H]3NC(=O)CNC2=O)CC1 [CBK292124] | 103
34 | O=C1NCCNC(=O)C2(C/C=C/COc3ccccc31)CCCN(Cc1cscn1)C2 (centres unmarked) [CBK292125] | 92.2
35 | O=C1COc2ccccc2C/C=C/CC2(CCN(Cc3cncnc3)CC2)CN1 [CBK292130] | 112
36 | CC(=O)N1CCC2(CCCC[C@H]3CN(C(C)C)CC[C@@H]3NC(=O)CNC2=O)CC1 [CBK292133] | 102
37 | COCCN1CC[C@@H]2[C@@H](C/C=C/Cc3ccccc3OCC(=O)N2C)C1 [CBK292134] | 98
38 | O=C1COc2ccccc2C/C=C/CC2(CCCN(C(=O)CCN3CCCC3)C2)CN1 (centres unmarked) [CBK292136] | 102
39 | CC(=O)N1CC[C@H]2NC(=O)CNC(=O)C3(CCCC[C@H]2C1)CCN(C(=O)CCn1ccnc1)CC3 [CBK292138] | 111
40 | O=C1N[C@@H]2CCN(CC(=O)N3CCCC3)C[C@@H]2CCCCCOc2ccccc21 [CBK292141] | 107
41 | O=C1CNC(=O)C2(C/C=C/C[C@H]3COCC[C@H]3N1)CCN(C(=O)C1CCOCC1)CC2 [CBK292143] | 84.9
42 | CN1C(=O)c2ccccc2OCCCCC[C@H]2[C@@H]1CCCN2C(=O)CN1CCN(CCO)CC1 [CBK292144] | 99
43 | O=C1COc2ccccc2C/C=C/C[C@H]2CN(C(=O)CN3CCN(CCO)CC3)CC[C@H]2N1 [CBK292146] | 110
44 | CC(=O)N1CCC2(C/C=C/C[C@H]3CN(CC(N)=O)CC[C@H]3NC(=O)CNC2=O)CC1 [CBK292148] | 97.6
45 | O=C1COc2ccccc2C(=O)N[C@@H]2CCOC[C@@H]2C/C=C/C[C@H]2[C@H](CCCN2CCO)N1 [CBK292149] | 106
46 | CN1C(=O)COc2ccccc2CCCC[C@@H]2[C@H]1CCCN2C(=O)CCn1ccnc1 [CBK292150] | 96.6
47 | O=C1COc2ccccc2C/C=C/CC2(CCN(C(=O)Cc3cccnc3)CC2)C(=O)NCCN1 [CBK292153] | 110
48 | Cc1cc(C(=O)N2CCC3(C/C=C/CCOc4ccccc4C(=O)NCCCNC3=O)CC2)no1 [CBK292155] | 92.6

Row | SMILES | viability at 28.5 h, 10 µM [%]
49 | O=C1CNC(=O)C2(C/C=C/C[C@H]3COCC[C@H]3N1)CCN(Cc1ccc(F)cn1)CC2 [CBK292160] | 110
50 | O=C1CNC(=O)C2(C/C=C/C[C@H]3COCC[C@H]3N1)CCN(C(=O)c1ccc(=O)[nH]n1)CC2 [CBK292161] | 110
51 | CC(=O)N1CCC2(CCCC[C@H]3CN(CC(=O)N(C)C)CC[C@@H]3NC(=O)CNC2=O)CC1 [CBK292163] | 94.6
52 | CC(=O)N1CCC[C@H]2NC(=O)CNC(=O)C3(C/C=C/C[C@H]21)CCN(Cc1cc[nH]n1)CC3 [CBK292164] | 103
53 | O=C1COc2ccccc2CCCCC2(CCCNC2)CN1 (centres unmarked) [CBK292166] | 90.5
54 | CC(=O)N1CCC2(C/C=C/C[C@H]3CN(Cc4nccs4)CC[C@H]3NC(=O)CNC2=O)CC1 [CBK292169] | 111
55 | COCCOCC(=O)N1CCC2(C/C=C/C[C@H]3COCC[C@H]3NC(=O)CNC2=O)CC1 [CBK292170] | 105
56 | CC(=O)N1CC[C@H]2NC(=O)CNC(=O)C3(CCCC[C@H]2C1)CCN(C(=O)c1ccc(C)nc1)CC3 [CBK292172] | 94.7
57 | CC(=O)N1CCC[C@H]2NC(=O)CNC(=O)C3(C/C=C/C[C@H]21)CCN(C(=O)CCC(=O)O)CC3 [CBK292174] | 85
58 | CN1CCOc2ccccc2C(=O)NC/C=C/CC2(CCCN(Cc3cc[nH]n3)C2)C1=O (centres unmarked) [CBK292175] | 103
59 | CC(=O)N1CCC[C@H]2NC(=O)CNC(=O)C3(C/C=C/C[C@H]21)CCN(C(=O)c1cc(C)no1)CC3 [CBK292176] | 104
60 | Cn1ccc(C(=O)N2CCCC3(C/C=C/Cc4ccccc4OCC(=O)NC3)C2)cc1=O (centres unmarked) [CBK292179] | 107
61 | CN1C(=O)COc2ccccc2CCCC[C@@H]2[C@H]1CCCN2C(=O)CCCn1cncn1 [CBK292182] | 95.3
62 | O=C1NC[C@@H](Cc2ccccc2)NC(=O)C2(C/C=C/COc3ccccc31)CCN(C(=O)CN1CCCC1)CC2 [CBK292184] | 103
63 | CC(=O)N[C@H](C(=O)N1CC[C@@H]2NC(=O)[C@@H](Cc3ccccc3)NC(=O)C3(C/C=C/C[C@@H]2C1)CCOCC3)[C@@H](C)O [CBK292186] | 96.9
64 | Cc1ncsc1C(=O)N1CCC2(C/C=C/C[C@H]3COCC[C@H]3NC(=O)[C@@H](CC(C)C)NC2=O)CC1 [CBK292187] | 107
65 | CN1CC(=O)N2CCOC(C2)c2cccc(n2)NC(=O)C/C=C/CC2(CCN(c3ncccn3)CC2)C1=O (centres unmarked) [CBK292188] | 95.2
66 | CC(=O)N[C@@H](Cc1ccccc1)C(=O)N1CC[C@H]2NC(=O)[C@H](Cc3ccccc3)NC(=O)C3(C/C=C/C[C@@H]2C1)CCOCC3 [CBK292190] | 82.2
67 | CC(C)C[C@@H]1NC(=O)C2(C/C=C/C[C@@H]3COCC[C@@H]3NC1=O)CCN(C(=O)[C@H](CO)NC(=O)OCc1ccccc1)CC2 [CBK292191] | 102
68 | O=C1NC[C@@H](Cc2ccccc2)NC(=O)C2(C/C=C/COc3ccccc31)CCN(Cc1ncccc1F)CC2 [CBK292193] | 111
69 | CN1CC(=O)N2CCOC(C2)c2cccc(n2)NC(=O)C/C=C/CC2(CCN(Cc3ncc[nH]3)CC2)C1=O (centres unmarked) [CBK292196] | 103
70 | CC(=O)N[C@H](C(=O)N1CCC2(C/C=C/C[C@H]3COCC[C@H]3NC(=O)[C@@H](CC(C)C)NC2=O)CC1)[C@@H](C)OC(C)(C)C [CBK292197] | 90.7
71 | CC(=O)N[C@@H](C(=O)N1CC[C@@H]2NC(=O)[C@@H](Cc3ccccc3)NC(=O)C3(C/C=C/C[C@H]2C1)CCOCC3)C(C)C [CBK292198] | 97.1
